# In patent US20240156817A1, “TREATMENTS FOR PAIN” (Sevenless Therapeutics Limited, priority 2021, published 2024):
# Assays:
# [1] = system: CFA-(Complete Freunds Adjuvant) induced hypersensitivity; test: CFA-induced hypersensitivity using weight-bearing in the C57BI6 mouse; format: in vivo
# Method: On 3 days before CFA dose: habituation to WB apparatus, baseline readings are taken once. 24 h before dosing: intraplantar injection of 20 μl of CFA 1.5 mg/ml to the left hind paw. 1 h before dosing: post-CFA readings are taken for WB. […] Naive animals distribute their body weight equally between the two hind paws. However, when a painful insult is given to one hindpaw (i.e., sciatic nerve constriction or CFA intraplantar injection), the weight is re-distributed so that less weight is put on the affected paw (with a decrease in weight bearing on the injured paw). Animals were placed in the incapacitance tester (Linton Instruments, UK) with the hind paws on separate sensors. The average forces exerted by the left and the right hindlimb were recorded over 2 s. Weight-bearing readings were taken for both left and right hind paws. The ratio ipsilateral/contralateral was calculated and expressed in % (mean±s.e.m.). Statistics: Two-Way RM Mixed model (treatment×repeated factor: time) (InVivoStat v3.7.0.0)
# [2] = system: pain models (knee osteoarthritis pain, arthritic joint, auto-immune arthritis); conditions: rats as printed; cited papers say mouse; cited from earlier work
# [3] = system: Nerve Growth Factor (NGF) stimulated phospho-ERK1/2 activation in PC-12 cells; test: Inhibition of NGF stimulated pERK1/2 activation in the PC-12 cell line (HTRF), alone and combined with anti-NGF; format: cell-based, rat
# Method: Homogeneous Time-Resolved Fluorescence (HTRF) assay:
# Reagents from the HTRF commercial kit (Cisbio) were prepared according to the manufacturer's instructions.
# PC-12 cells were isolated from routine cellular culture and plated at an appropriate cell density in 384-well plates (typically 25,000 cells per well) for 24 hours under serum-starved conditions. […] Following the 30-minute compound pre-incubation, PC-12 cells were treated with NGF (titrations of NGF from 250 ng/mL to 10 ng/mL were tested), and subsequently incubated for a 5-minute period (37° C./5% CO2). […] A 2-hour incubation at room temperature was performed prior to fluorescence signal determination using a microplate reader (PHERAstar FSX, BMG Labtech).
# Percentage inhibition values were calculated per compound concentration by normalising the sample data to the high and low controls used within each plate (+/−25 ng/mLNGF respectively). […]
# PC-12 cells were isolated from routine cellular culture and plated at an appropriate cell density (typically 25,000 cells per well) in 384-well plates for 24 hours under serum-starved conditions. […] A 2-hour incubation at room temperature was performed prior to fluorescence signal being measured in a microplate reader (PHERAstar FSX, BMG Labtech). […]
substance,measurement,setting,value
"Tanezumab: an anti-NGF antibody, pain drug candidate","weight-bearing, ratio ipsilateral/contralateral (mean)","[1]; Tanezumab 3 mg/kg, DRUG TREATED 0.5 h (approx)",82.54%
same,"weight-bearing, ratio ipsilateral/contralateral (mean)","[1]; Tanezumab 3 mg/kg, DRUG TREATED 8.5 h (approx)",94.11%
same,"weight-bearing, ratio ipsilateral/contralateral (mean)","[1]; Tanezumab 3 mg/kg, DRUG TREATED 24.5 h (approx)",89.88%
same,"weight-bearing, ratio ipsilateral/contralateral (mean)","[1]; Tanezumab 3 mg/kg, DRUG TREATED 32.5 h (approx)",84.25%
same,"weight-bearing, ratio ipsilateral/contralateral (mean)","[1]; combination study, Tanezumab 3 mg/kg i.p. alone, DRUG TREATED (d2 PM)",99.84%
same,dose at which efficacy is shown (scientific literature),[2],10 mg/kg
same,efficacy,[3]; Tanezumab at a concentration of 50 nM,90%
same,efficacy,[3]; tanezumab at a concentration of 200 nM,100%
